The source of these data is patent US11542492B2 (Celgene CAR LLC, priority 2009, dated 2023).

The structures appear in SMILES notation.

What all share (assay type): biochemical
One assay deals with T1, p110β/p85α (PI3Kβ) (Homo sapiens, UniProt P42338).
T1 construct: purchased Millipore 14-603
The assay can be described thus: HTRF assay, p110β/p85α. The note with it: read-out: PI3Kβ HTRF IC50 Inhibition Designation. Here is the method: (§1) The mechanics of the assay platform are best described by the vendor (Millipore, Billerica, Mass.) on their website at the following URL: http://www.millipore.com/coa/tech1/74jt4z.
(§2) Briefly, Stop solution (Stop A, #33-007 and Stop B, #33-009; 3:1 ratio) and Detection Mix (DMC, #33-015 with DMA, #33-011 and DMB, #33-013; 18:1:1 ratio) were prepared as recommended by the manufacturer ˜2 hrs prior to use. […] Lipid kinase reactions were started with the addition of 5 μL of ATP solution, mixed for 15 sec on a rotary plate shaker and incubated for 15-30 minutes at 25° C. Next, reactions were stopped with a 5 μL addition of Stop solution followed by a 5 μL volume of Detection Mix. […] At the conclusion of each assay, the HTRF ratio from fluorescence emission values for each well was calculated and % Inhibition determined from averaged controls wells. % Inhibition values for each compound re then plotted against inhibitor concentration to estimate IC50 from log [Inhibitor] vs Response, Variable Slope model in GraphPad Prism from GraphPad Software (San Diego, Calif.).

In another assay the target is T2, p120γ (PI3Kγ) (Homo sapiens, UniProt P48736).
T2 construct: purchased BPS Bioscience 40625
As to the kind of experiment: HTRF assay, p120γ. The note with it: PI3Kγ; read-out: PI3Kγ HTRF IC50 Inhibition Designation. The text has this: The protocol below describes an end-point, competition-binding HTRF assay used to measure inherent potency of test compounds against active p110α/p85α, p110β/p85α, p120γ enzymes. The mechanics of the assay platform are best described by the vendor (Millipore, Billerica, Mass.) on their website at the following URL: http://www.millipore.com/coa/tech1/74jt4z.
Briefly, Stop solution (Stop A, #33-007 and Stop B, #33-009; 3:1 ratio) and Detection Mix (DMC, #33-015 with DMA, #33-011 and DMB, #33-013; 18:1:1 ratio) were prepared as recommended by the manufacturer ˜2 hrs prior to use. Additionally, 1× reaction buffer (4× buffer stock #33-003), a 1.4× stock of enzyme from BPS Bioscience (San Diego, Ca) or Millipore (Billerica, Mass.) with di-C8-PIP2 lipid substrate (#33-005), and a 4×ATP solution (#A7699) Sigma/Aldrich (St. Louis, Mo.) were prepared in 1×reaction buffer. 15 μL of enzyme and lipid substrate mix were pre-incubated in a Corning (#3573) 384-well, black, non-treated microtiter plate (Corning, N.Y.) for 30 min at 25° C. with a 0.5 μL volume of 50% DMSO and serially diluted compounds prepared in 50%-75% DMSO. Lipid kinase reactions were started with the addition of 5 μL of ATP solution, mixed for 15 sec on a rotary plate shaker and incubated for 15-30 minutes at 25° C. Next, reactions were stopped with a 5 μL addition of Stop solution followed by a 5 μL volume of Detection Mix. Stopped reactions were equilibrated for 1 and 18 hrs at room temperature and then read in a Synergy4 plate reader from BioTek (Winooski, Vt.) at λex330-80/λem620-35 and λem665-7.5. At the conclusion of each assay, the HTRF ratio from fluorescence emission values for each well was calculated and % Inhibition determined from averaged controls wells. % Inhibition values for each compound re then plotted against inhibitor concentration to estimate IC50 from log [Inhibitor] vs Response, Variable Slope model in GraphPad Prism from GraphPad Software (San Diego, Calif.).
Reagents Used in Optimized Protocol: • [p120γ]=1-4 nM, [ATP]=50 μM, [di-C8-PIP2]=10 μM • (40625; BPS Bioscience)

A further assay deals with T3, p110α/p85α (PI3Kα) (Homo sapiens, UniProt P42336).
T3 construct: purchased BPS Bioscience or Millipore 40620 (BPS Bioscience) or 14-602 (Millipore)
As to the kind of experiment: HTRF assay, p110α/p85α. Particulars: read-out: PI3Kα-HTRF-IC50 nM Inhibition Designation. The method, then:
HTRF Assay Protocol for Potency Assessment Against the Active Form of p110α/p85α:
as §1, §2

T1 sequence (P42338 whole entry): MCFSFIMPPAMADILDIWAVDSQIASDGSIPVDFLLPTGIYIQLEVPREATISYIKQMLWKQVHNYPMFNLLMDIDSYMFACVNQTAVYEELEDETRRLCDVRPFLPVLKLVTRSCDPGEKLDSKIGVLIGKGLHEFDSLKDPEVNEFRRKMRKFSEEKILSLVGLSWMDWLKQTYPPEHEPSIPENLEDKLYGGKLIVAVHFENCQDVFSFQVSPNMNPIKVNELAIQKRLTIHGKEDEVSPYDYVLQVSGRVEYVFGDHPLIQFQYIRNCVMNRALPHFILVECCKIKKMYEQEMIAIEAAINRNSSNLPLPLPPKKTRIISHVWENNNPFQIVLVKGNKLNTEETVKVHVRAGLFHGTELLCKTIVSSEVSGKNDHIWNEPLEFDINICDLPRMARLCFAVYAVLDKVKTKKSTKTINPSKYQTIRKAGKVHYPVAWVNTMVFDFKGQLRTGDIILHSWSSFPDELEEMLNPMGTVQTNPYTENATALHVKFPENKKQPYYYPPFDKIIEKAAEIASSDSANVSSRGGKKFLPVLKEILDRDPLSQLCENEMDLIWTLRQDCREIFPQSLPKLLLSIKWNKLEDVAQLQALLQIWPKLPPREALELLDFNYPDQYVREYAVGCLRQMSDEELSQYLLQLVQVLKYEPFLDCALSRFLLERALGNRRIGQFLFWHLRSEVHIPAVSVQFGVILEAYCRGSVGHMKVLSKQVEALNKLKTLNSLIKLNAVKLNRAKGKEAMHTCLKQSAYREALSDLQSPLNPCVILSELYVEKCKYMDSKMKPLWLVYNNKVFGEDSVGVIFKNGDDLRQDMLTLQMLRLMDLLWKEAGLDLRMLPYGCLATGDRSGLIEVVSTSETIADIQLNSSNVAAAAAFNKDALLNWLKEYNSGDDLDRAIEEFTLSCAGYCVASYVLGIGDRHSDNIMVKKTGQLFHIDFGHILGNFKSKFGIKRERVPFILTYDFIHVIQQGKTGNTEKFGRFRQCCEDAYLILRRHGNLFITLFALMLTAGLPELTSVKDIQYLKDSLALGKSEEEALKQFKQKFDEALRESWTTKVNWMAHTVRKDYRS
T1 sequence (P27986 whole entry partner): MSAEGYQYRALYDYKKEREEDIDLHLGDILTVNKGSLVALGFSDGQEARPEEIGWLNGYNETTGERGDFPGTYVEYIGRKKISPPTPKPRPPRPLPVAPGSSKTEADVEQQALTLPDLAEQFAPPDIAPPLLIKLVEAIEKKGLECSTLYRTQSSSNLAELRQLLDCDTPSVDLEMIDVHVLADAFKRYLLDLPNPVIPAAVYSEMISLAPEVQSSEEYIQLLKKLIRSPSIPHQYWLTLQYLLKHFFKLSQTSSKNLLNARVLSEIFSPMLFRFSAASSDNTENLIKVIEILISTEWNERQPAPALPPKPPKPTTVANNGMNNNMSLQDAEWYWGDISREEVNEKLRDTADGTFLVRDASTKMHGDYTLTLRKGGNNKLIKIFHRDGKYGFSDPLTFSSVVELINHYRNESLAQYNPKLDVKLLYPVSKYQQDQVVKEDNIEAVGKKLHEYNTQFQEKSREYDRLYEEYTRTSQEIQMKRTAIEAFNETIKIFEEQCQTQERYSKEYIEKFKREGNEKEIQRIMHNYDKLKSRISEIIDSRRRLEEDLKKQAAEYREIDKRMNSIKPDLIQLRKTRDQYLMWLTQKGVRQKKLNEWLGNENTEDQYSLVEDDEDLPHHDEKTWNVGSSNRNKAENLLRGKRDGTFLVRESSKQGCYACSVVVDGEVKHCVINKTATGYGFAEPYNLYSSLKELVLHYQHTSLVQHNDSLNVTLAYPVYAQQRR
T2 sequence (P48736 whole entry): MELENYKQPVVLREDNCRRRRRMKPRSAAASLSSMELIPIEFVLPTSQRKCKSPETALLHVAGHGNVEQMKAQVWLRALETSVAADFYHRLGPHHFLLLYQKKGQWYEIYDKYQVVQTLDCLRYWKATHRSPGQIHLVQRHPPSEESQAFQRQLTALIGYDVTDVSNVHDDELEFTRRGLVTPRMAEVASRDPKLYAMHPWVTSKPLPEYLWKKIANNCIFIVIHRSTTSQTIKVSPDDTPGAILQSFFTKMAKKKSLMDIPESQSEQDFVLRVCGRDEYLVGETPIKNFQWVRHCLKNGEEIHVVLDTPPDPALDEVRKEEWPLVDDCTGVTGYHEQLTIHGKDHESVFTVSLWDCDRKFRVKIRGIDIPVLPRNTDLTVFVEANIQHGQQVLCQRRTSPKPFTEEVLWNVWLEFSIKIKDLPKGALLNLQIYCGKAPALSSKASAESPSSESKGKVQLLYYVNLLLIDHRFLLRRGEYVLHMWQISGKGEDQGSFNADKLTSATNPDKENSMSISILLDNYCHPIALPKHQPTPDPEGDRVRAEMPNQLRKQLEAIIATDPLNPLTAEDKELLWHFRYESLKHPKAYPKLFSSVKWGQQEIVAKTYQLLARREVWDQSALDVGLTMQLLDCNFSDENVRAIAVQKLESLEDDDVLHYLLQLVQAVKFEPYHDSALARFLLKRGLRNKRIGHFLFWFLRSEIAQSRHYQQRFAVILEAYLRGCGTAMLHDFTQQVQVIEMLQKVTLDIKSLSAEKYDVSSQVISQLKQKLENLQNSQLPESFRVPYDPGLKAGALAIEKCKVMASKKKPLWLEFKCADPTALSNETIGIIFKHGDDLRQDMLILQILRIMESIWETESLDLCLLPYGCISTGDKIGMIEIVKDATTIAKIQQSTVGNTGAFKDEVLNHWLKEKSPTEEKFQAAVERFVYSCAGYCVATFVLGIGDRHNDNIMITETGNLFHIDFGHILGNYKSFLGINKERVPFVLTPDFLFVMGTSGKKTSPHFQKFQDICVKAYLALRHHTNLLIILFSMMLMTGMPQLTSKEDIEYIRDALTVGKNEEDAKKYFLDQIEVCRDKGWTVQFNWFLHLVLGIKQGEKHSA
T3 sequence (P42336 whole entry): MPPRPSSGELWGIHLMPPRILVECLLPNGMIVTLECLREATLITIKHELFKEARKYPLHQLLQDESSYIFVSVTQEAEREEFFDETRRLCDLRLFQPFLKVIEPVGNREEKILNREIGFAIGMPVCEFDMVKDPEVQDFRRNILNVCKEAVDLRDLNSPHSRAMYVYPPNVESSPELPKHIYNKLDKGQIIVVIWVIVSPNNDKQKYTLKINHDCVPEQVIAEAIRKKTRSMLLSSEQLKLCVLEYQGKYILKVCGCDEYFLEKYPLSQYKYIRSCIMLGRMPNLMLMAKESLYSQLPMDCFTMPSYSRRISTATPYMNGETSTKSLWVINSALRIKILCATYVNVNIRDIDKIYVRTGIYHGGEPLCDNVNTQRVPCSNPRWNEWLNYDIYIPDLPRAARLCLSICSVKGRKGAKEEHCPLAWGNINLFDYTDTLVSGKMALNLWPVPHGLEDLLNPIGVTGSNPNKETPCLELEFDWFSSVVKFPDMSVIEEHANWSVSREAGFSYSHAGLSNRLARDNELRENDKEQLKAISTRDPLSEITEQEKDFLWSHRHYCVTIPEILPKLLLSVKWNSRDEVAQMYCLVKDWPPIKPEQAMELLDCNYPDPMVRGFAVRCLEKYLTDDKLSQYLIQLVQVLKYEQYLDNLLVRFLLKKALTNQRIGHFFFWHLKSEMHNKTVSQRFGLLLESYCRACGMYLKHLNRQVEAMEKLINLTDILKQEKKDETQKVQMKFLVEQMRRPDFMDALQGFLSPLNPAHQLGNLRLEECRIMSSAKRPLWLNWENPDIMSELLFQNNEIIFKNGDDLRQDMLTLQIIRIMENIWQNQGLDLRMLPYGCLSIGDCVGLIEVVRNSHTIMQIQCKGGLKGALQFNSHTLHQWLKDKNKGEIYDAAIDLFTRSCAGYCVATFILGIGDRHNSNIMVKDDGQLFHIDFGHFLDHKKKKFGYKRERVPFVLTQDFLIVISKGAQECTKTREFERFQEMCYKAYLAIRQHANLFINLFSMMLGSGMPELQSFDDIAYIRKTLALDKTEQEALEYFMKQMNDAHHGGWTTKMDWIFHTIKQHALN
T3 sequence (P27986 whole entry partner): as the sequence (P27986 whole entry partner) above

`COc1ncc(-c2ccc3nccc(-c4ccc(C(=O)N5C[C@H]6C[C@@H]5C(=O)O6)cc4)c3c2)cc1NS(=O)(=O)c1ccc(F)cc1F` [XXV-15, 2,4-difluoro-N-(2-methoxy-5-(4-(4-((1R,4R)-3-oxo-2-oxa-5-azabicyclo[2.2.1]heptane-5-carbonyl)phenyl)quinolin-6-yl)pyridin-3-yl)benzenesulfonamide]: at p110β/p85α (PI3Kβ), the IC50 is under 10 nM.
As to `O=C1CC[C@@H](C(=O)N2CCN(Cc3cc4nc(-c5cccc6[nH]ncc56)nc(N5CCOCC5)c4s3)CC2)O1` [XXII-23], the results for the IC50 at p110β/p85α (PI3Kβ) and at p120γ (PI3Kγ) were 1000 to 10000 nM and 100 to 1000 nM, respectively.
As to `O=C1CC[C@H](C(=O)N2CCN(c3ccnc4ccc(/C=C5\SC(Nc6c(Cl)cccc6Cl)=NC5=O)cc34)CC2)O1` [XXIV-1], the IC50 lay within 10 to 100 nM on p110α/p85α (PI3Kα) and 100 to 1000 nM at p120γ (PI3Kγ).
For `CC1(C)Cc2nc(N3CCOc4ccc(NC(=O)[C@H]5CCC(=O)O5)cc43)sc2C(=O)N1` [XXIII-2] the same measures were 100 to 1000 nM and 100 to 1000 nM.
Take `C[C@H]1OC(=O)[C@H]1NC(=O)N1CCN(Cc2cc3nc(-c4cccc5[nH]ncc45)nc(N4CCOCC4)c3s2)CC1` [XXII-13]: the IC50 on p110α/p85α (PI3Kα) and at p120γ (PI3Kγ) was 100 to 1000 nM each time.
Turning to `O=C1O[C@H]2C[C@@H]1N(Cc1cc(O)cc(-c3nc(N4CCOCC4)c4sccc4n3)c1)C2` [XXII-20], the IC50 at p110α/p85α (PI3Kα) fell in the range of 100 to 1000 nM; at p120γ (PI3Kγ), 1000 to 10000 nM.
The like results for `C=CC(=O)Nc1cccc(-c2nc(N3CCOCC3)c3sccc3n2)c1` [XXII-21] were, in that order, 1000 to 10000 nM and 1000 to 10000 nM.
The like results for `O=C1CC[C@@H](C(=O)N2CCN(c3ccnc4ccc(/C=C5\SC(Nc6c(Cl)cccc6Cl)=NC5=O)cc34)CC2)O1` [XXIV-2] were, in that order, 100 to 1000 nM and 100 to 1000 nM.
Turning to `CC1(C)Cc2nc(N3CCOc4ccc(C(=O)N5C[C@H]6C[C@@H]5C(=O)O6)cc43)sc2C(=O)N1` [XXIII-3], the IC50 at p110α/p85α (PI3Kα) and on p120γ (PI3Kγ) was 100 to 1000 nM throughout.
Turning to `CC1(C)Cc2nc(N3CCOc4ccc(-c5ccc(C(=O)N6C[C@H]7C[C@@H]6C(=O)O7)cc5)cc43)sc2C(=O)N1` [XXIII-7], the IC50 on p110α/p85α (PI3Kα) and on p120γ (PI3Kγ) was 1000 to 10000 nM throughout.
On to `COc1ccc(NC(=O)[C@H]2CCC(=O)O2)cc1-n1c(CSc2ncnc3[nH]cnc23)nc2cccc(Cl)c2c1=O` [XXXVII-2, (R)-N-(3-(2-((9H-purin-6-ylthio)methyl)-5-chloro-4-oxoquinazolin-3(4H)-yl)-4-methoxyphenyl)-5-oxotetrahydrofuran-2-carboxamide], for which the IC50 on p110β/p85α (PI3Kβ) is 100 to 1000 nM.
`COc1ccc(C(=O)N2C[C@@H]3C[C@H]2C(=O)O3)cc1-n1c(CSc2ncnc3[nH]cnc23)nc2cccc(Cl)c2c1=O` [XXXVII-1, (1S,4S)-5-(3-(2-((9H-purin-6-ylthio)methyl)-5-chloro-4-oxoquinazolin-3(4H)-yl)-4-methoxybenzoyl)-2-oxa-5-azabicyclo[2.2.1]heptan-3-one]: the IC50 on p110β/p85α (PI3Kβ) was 100 to 1000 nM.
For the compound `CC1(C)Cc2nc(N3CCOc4ccc(-c5ccc6occc(=O)c6c5)cc43)sc2C(=O)N1` [XXIII-6], the IC50 at p110α/p85α (PI3Kα) and at p120γ (PI3Kγ) was 100 to 1000 nM throughout.
On to `COc1ccc(NC(=O)[C@@H]2CCC(=O)O2)cc1-n1c(CSc2ncnc3[nH]cnc23)nc2cccc(Cl)c2c1=O` [XXXVII-3, (S)-N-(3-(2-((9H-purin-6-ylthio)methyl)-5-chloro-4-oxoquinazolin-3(4H)-yl)-4-methoxyphenyl)-5-oxotetrahydrofuran-2-carboxamide], for which, on p110β/p85α (PI3Kβ), the IC50 is 100 to 1000 nM.
On to `C=CC(=O)Nc1ccc(-c2ccnc3ccc(-c4cnc(OC)c(NS(=O)(=O)c5ccc(F)cc5F)c4)cc23)cc1` [XXV-14, N-(4-(6-(5-(2,4-difluorophenylsulfonamido)-6-methoxypyridin-3-yl)quinolin-4-yl)phenyl) acrylamide], for which the IC50 on p110β/p85α (PI3Kβ) was under 10 nM.
`CC1(C)Cc2nc(N3CCOc4ccc(C(=O)N5C[C@@H]6C[C@H]5C(=O)O6)cc43)sc2C(=O)N1` [XXIII-4, (1S,4S)-5-(4-(6,6-dimethyl-4-oxo-4,5,6,7-tetrahydrothiazolo[5,4-c]pyridin-2-yl)-3,4-dihydro-2H-benzo[b][1,4]oxazine-6-carbonyl)-2-oxa-5-azabicyclo[2.2.1]heptan-3-one]: the IC50 on p110α/p85α (PI3Kα) and on p120γ (PI3Kγ) was 100 to 1000 nM each time.
Turning to `COc1ncc(-c2ccc3nccc(-c4ccc(C(=O)N5C[C@@H]6C[C@H]5C(=O)O6)cc4)c3c2)cc1NS(=O)(=O)c1ccc(F)cc1F` [XXV-13, 2,4-difluoro-N-(2-methoxy-5-(4-(4-((1S,4S)-3-oxo-2-oxa-5-azabicyclo[2.2.1]heptane-5-carbonyl)phenyl)quinolin-6-yl)pyridin-3-yl)benzenesulfonamide], the IC50 on p110β/p85α (PI3Kβ) was under 10 nM.
With `O=C1CC[C@@H](C(=O)N2CC=C(c3cc4nc(-c5cccc(O)c5)nc(N5CCOCC5)c4s3)CC2)O1` [XXII-1], the IC50 was in the range of 10 to 100 nM on p110α/p85α (PI3Kα) and 100 to 1000 nM on p120γ (PI3Kγ).
Turning to `COc1ccc(NC(=O)N2C[C@@H]3C[C@H]2C(=O)O3)cc1-n1c(CSc2ncnc3[nH]cnc23)nc2cccc(Cl)c2c1=O` [XXXVII-4, (1S,4S)-N-(3-(2-((9H-purin-6-ylthio)methyl)-5-chloro-4-oxoquinazolin-3(4H)-yl)-4-methoxyphenyl)-3-oxo-2-oxa-5-azabicyclo[2.2.1]heptane-5-carboxamide], at p110β/p85α (PI3Kβ), the IC50 is 100 to 1000 nM.
With `C=CS(=O)(=O)N1CCN(Cc2cc3nc(-c4cccc5[nH]ncc45)nc(N4CCOCC4)c3s2)CC1` [XXII-8, 4-(2-(1H-indazol-4-yl)-6-((4-(vinylsulfonyl)piperazin-1-yl)methyl)thieno[3,2-d]pyrimidin-4-yl)morpholine], the IC50 on p110α/p85α (PI3Kα) and at p120γ (PI3Kγ) was 100 to 1000 nM in each case.
As for `CC(C)Oc1c(N2CCN(Cc3cc4nc(-c5cccc6[nH]ncc56)nc(N5CCOCC5)c4s3)CC2)c(=O)c1=O` [XXII-15], the IC50 at p110α/p85α (PI3Kα) lay in the range of 10 to 100 nM; at p120γ (PI3Kγ) it was 100 to 1000 nM.
With `COc1c(OCCCC(=O)N2C[C@@H]3C[C@H]2C(=O)O3)ccc2c1N=C(NC(=O)c1cccnc1)N1CCN=C21` [XXVII-14, N-(7-methoxy-8-(4-oxo-4-((1S,4S)-3-oxo-2-oxa-5-azabicyclo[2.2.1]heptan-5-yl)butoxy)-2,3-dihydroimidazo[1,2-c]quinazolin-5-yl)nicotinamide], at p110β/p85α (PI3Kβ), the IC50 was 100 to 1000 nM.
As for `CC1(C)Cc2nc(N3CCOc4ccc(NC(=O)[C@@H]5CCC(=O)O5)cc43)sc2C(=O)N1` [XXIII-1], the IC50 on p110α/p85α (PI3Kα) and on p120γ (PI3Kγ) was 100 to 1000 nM throughout.
For `COc1c(OCCCC(=O)N2C[C@H]3C[C@@H]2C(=O)O3)ccc2c1N=C(NC(=O)c1cccnc1)N1CCN=C21` [XXVII-13, N-(7-methoxy-8-(4-oxo-4-((1R,4R)-3-oxo-2-oxa-5-azabicyclo[2.2.1]heptan-5-yl)butoxy)-2,3-dihydroimidazo[1,2-c]quinazolin-5-yl)nicotinamide], at p110β/p85α (PI3Kβ), the IC50 fell in the range of 100 to 1000 nM.
As to `C=CS(=O)(=O)Oc1cccc(-c2nc(N3CCOCC3)c3sc(CN(C)S(=O)(=O)C=C)cc3n2)c1` [XXII-9], the IC50 on p110α/p85α (PI3Kα) and at p120γ (PI3Kγ) was 100 to 1000 nM throughout.
`CN(Cc1cc2nc(-c3cccc(O)c3)nc(N3CCOCC3)c2s1)C(=O)CCC(=O)N1CCC1=O` [XXII-24, N-((2-(3-hydroxyphenyl)-4-morpholinothieno[3,2-d]pyrimidin-6-yl)methyl)-N-methyl-4-oxo-4-(2-oxoazetidin-1-yl)butanamide]: the IC50 at p110β/p85α (PI3Kβ) was in the range of 100 to 1000 nM.
